Our source for the inhibition values is US10610520B2, “Heterocyclic compound” (Takeda Pharmaceutical Company Limited, priority 2016, dated 2020).

This assay addresses T1, His-hMAGL (recombinant polyhistidine tagged human MAGL protein) (Homo sapiens, UniProt Q99685).
T1 construct: made in house; host or cells: E. coli BL21(DE3)
T1 sequence (Q99685 1-303): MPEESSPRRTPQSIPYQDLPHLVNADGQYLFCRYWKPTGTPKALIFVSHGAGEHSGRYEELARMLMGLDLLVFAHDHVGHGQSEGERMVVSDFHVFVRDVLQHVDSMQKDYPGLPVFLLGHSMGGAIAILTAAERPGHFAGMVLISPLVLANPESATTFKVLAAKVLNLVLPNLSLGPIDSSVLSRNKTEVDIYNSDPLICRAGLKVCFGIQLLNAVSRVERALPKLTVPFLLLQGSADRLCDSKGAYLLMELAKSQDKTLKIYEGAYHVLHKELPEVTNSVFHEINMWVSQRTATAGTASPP
The experiment in a line: Measurement of MAGL inhibitory activity (arachidonic acid production from 2-arachidonylglycerol, RapidFire-mass spectrometry). Type of assay: biochemical. The conditions noted are these: MAGL inhibitory rate, test compound 10 μM, 60 min preincubation, 2-arachidonylglycerol substrate. The protocol: The His-hMAGL obtained above was diluted with enzyme reaction buffer (10 mM Tris-HCl, pH 7.5, 1 mM EDTA, 0.025 (w/v) % Triton X-100, 0.01% Bovine serum albumin) to a concentration of 7.5 ng/mL. […] Thereafter, to each well was added 5 μL of 150 μM 2-arachidonylglycerol (Tocris Bioscience), and the mixture was incubated at room temperature for 10 min. Then, 10 μL of 2% formic acid (Wako Pure Chemical Industries, Ltd.) was added to stop the reaction. Furthermore, acetonitrile (50 μL) containing 3 μM arachidonic acid-d8 (Cayman Chemical Company) was added and the mixture was stirred.
The amount of arachidonic acid in the obtained enzyme reaction mixture was calculated by measuring by RapidFire-mass spectrometry and correcting by the amount of arachidonic acid-d8. High Throughput online solid phase extraction was performed using RapidFire 300™ system (Agilent Technologies, Inc.). Samples were loaded on SPE C4 cartridge (Agilent Technologies, Inc.) and desalted with 0.2 (v/v) % acetic acid (Wako Pure Chemical Industries, Ltd.) in ultrapure water/acetonitrile (70/30, v/v) at a flow rate of 1.5 mL/min, eluted at a flow rate of 0.5 mL/min with 0.2 (v/v) % acetic acid dissolved in acetonitrile/ultrapure water (90/10, v/v), and injected into the mass spectrometry part. The injection needle was washed with ultrapure water (500 millisecond) and acetonitrile (500 millisecond) to minimize carry-over. […] The RapidFire300 system was controlled by RapidFire UI software version 3.6 (Agilent Technologies, Inc.).
The mass spectrometry of the resultant product was performed using API4000™ triple quadrupole mass spectrometer (AB SCIEX) equipped with an electrospray ion sauce (TurboIon Spray™) in a negative selected reaction monitoring (SRM) mode. The conditions of SRM are shown below. The parameters of the instrument were optimized as follows: capillary temperature 600° C., ion spray voltage −4.5 kV, collision gas 8, curtain gas 15 psi, ion source gas 1 60 psi, ion source gas 2 60 psi. The mass spectrometer was controlled by Analyst™ software version 1.5.1 (AB SCIEX). The peak area integration was analyzed using RapidFire integrator software version 3.6 (Agilent Technologies, Inc.).
MAGL inhibitory rate (%) was calculated according to the following calculation formula. (1-(arachidonic acid production amount of test compound addition group−arachidonic acid production amount of enzyme-free group)÷(arachidonic acid production amount of test compound-free group−arachidonic acid production amount of enzyme-free group))×100

Regarding `O=C1CCC2(CN(C(=O)c3ccc(-c4cccc(C(F)(F)F)c4F)cc3)C2)N1` [Example 49, 2-((2′-fluoro-3′-(trifluoromethyl)biphenyl-4-yl)carbonyl)-2,5-diazaspiro[3.4]octan-6-one], the inhibition at 10 µM was 99%.

`O=C1CCC2(CN(C(=O)c3ccc(-c4ccc(F)c(C(F)(F)F)c4)cc3)C2)N1` [Example 50, 2-((4′-fluoro-3′-(trifluoromethyl)biphenyl-4-yl)carbonyl)-2,5-diazaspiro[3.4]octan-6-one]: the inhibition at 10 µM was found to be 98%.

Turning to `O=C1CCC2(CN(C(=O)c3ccc(-c4cccc(C(F)(F)F)c4Cl)cc3)C2)N1` [Example 51, 2-((2′-chloro-3′-(trifluoromethyl)biphenyl-4-yl)carbonyl)-2,5-diazaspiro[3.4]octan-6-one], the inhibition at 10 µM was determined as 99%.

With `O=C1CCC2(CN(C(=O)c3ccc(-c4ccc(Cl)c(C(F)(F)F)c4)cc3)C2)N1` [Example 52, 2-((4′-chloro-3′-(trifluoromethyl)biphenyl-4-yl)carbonyl)-2,5-diazaspiro[3.4]octan-6-one], the inhibition at 10 µM was found to be 99%.

Take `O=C1CCC2(CN(C(=O)c3ccc(-c4cc(C5CC5)ccc4F)cc3)C2)N1` [Example 53, 2-((5′-cyclopropyl-2′-fluorobiphenyl-4-yl)carbonyl)-2,5-diazaspiro[3.4]octan-6-one]: the inhibition at 10 µM was determined as 99%.

For the compound `CC(C)(C)c1ccc(-c2ccc(C(=O)N3CC4(CCC(=O)N4)C3)cc2)cc1` [Example 54, 2-((4′-tert-butylbiphenyl-4-yl)carbonyl)-2,5-diazaspiro[3.4]octan-6-one], the inhibition at 10 µM was found to be 99%.

Take `CC(C)(C)c1cccc(-c2ccc(C(=O)N3CC4(CCC(=O)N4)C3)cc2)c1` [Example 55, 2-((3′-tert-butylbiphenyl-4-yl)carbonyl)-2,5-diazaspiro[3.4]octan-6-one]: the inhibition at 10 µM worked out at 101%.

Regarding `Cn1c(-c2ccc(C(=O)N3CC4(CCC(=O)N4)C3)cc2)cc2ccccc21` [Example 56, 2-(4-(1-methyl-1H-indol-2-yl)benzoyl)-2,5-diazaspiro[3.4]octan-6-one], the inhibition at 10 µM worked out at 94%.

Take `O=C1CCC2(CN(C(=O)c3ccc(-c4ccc5c(c4)CCC5)cc3)C2)N1` [Example 57, 2-(4-(2,3-dihydro-1H-inden-5-yl)benzoyl)-2,5-diazaspiro[3.4]octan-6-one]: the inhibition at 10 µM is 99%.

As to `O=C1CCC2(CN(C(=O)c3ccc(-c4ccc(OC(F)(F)F)cc4)cc3)C2)N1` [Example 58, 2-((4′-(trifluoromethoxy)biphenyl-4-yl)carbonyl)-2,5-diazaspiro[3.4]octan-6-one], the inhibition at 10 µM worked out at 96%.

For `O=C1CCC2(CN(C(=O)c3ccc(-c4ccc(OC(F)(F)F)cc4F)cc3)C2)N1` [Example 59, 2-((2′-fluoro-4′-(trifluoromethoxy)biphenyl-4-yl)carbonyl)-2,5-diazaspiro[3.4]octan-6-one], the inhibition at 10 µM is 97%.

Regarding `O=C1CCC2(CN(C(=O)c3ccc(-c4cccc(OC(F)(F)F)c4)cc3)C2)N1` [Example 60, 2-((3′-(trifluoromethoxy)biphenyl-4-yl)carbonyl)-2,5-diazaspiro[3.4]octan-6-one], the inhibition at 10 µM was 98%.

As to `O=C1CCC2(CN(C(=O)c3ccc(-c4cc(OC(F)(F)F)ccc4F)cc3)C2)N1` [Example 61, 2-((2′-fluoro-5′-(trifluoromethoxy)biphenyl-4-yl)carbonyl)-2,5-diazaspiro[3.4]octan-6-one], the inhibition at 10 µM came out at 97%.

For the compound `O=C1CCC2(CN(C(=O)c3ccc(-c4ccccc4OC(F)(F)F)cc3)C2)N1` [Example 62, 2-((2′-(trifluoromethoxy)biphenyl-4-yl)carbonyl)-2,5-diazaspiro[3.4]octan-6-one], the inhibition at 10 µM is 95%.

On to `O=C1CCC2(CN(C(=O)c3ccc(-c4ccc(C5(C(F)(F)F)CC5)cc4)cc3)C2)N1` [Example 63, 2-((4′-(1-(trifluoromethyl)cyclopropyl)biphenyl-4-yl)carbonyl)-2,5-diazaspiro[3.4]octan-6-one], for which the inhibition at 10 µM is 99%.

With `O=C1CCC2(CN(C(=O)c3ccc(-c4cccc(C5(C(F)(F)F)CC5)c4)cc3)C2)N1` [Example 64, 2-((3′-(1-(trifluoromethyl)cyclopropyl)biphenyl-4-yl)carbonyl)-2,5-diazaspiro[3.4]octan-6-one], the inhibition at 10 µM stood at 99%.

As to `O=C1CCC2(CN(C(=O)c3ccc(-c4ccc5sc(C(F)(F)F)nc5c4)cc3)C2)N1` [Example 65, 2-(4-(2-(trifluoromethyl)-1,3-benzothiazol-5-yl)benzoyl)-2,5-diazaspiro[3.4]octan-6-one], the inhibition at 10 µM was 85%.

In the case of `O=C1CCC2(CN(C(=O)c3ccc(-c4coc5ccccc45)cc3)C2)N1` [Example 66, 2-(4-(1-benzofuran-3-yl)benzoyl)-2,5-diazaspiro[3.4]octan-6-one], the inhibition at 10 µM turned out to be 98%.

Take `O=C1CCC2(CN(C(=O)c3ccc(-c4csc5ccccc45)cc3)C2)N1` [Example 67, 2-(4-(1-benzothiophen-3-yl)benzoyl)-2,5-diazaspiro[3.4]octan-6-one]: the inhibition at 10 µM stood at 100%.

For the compound `O=C1CCC2(CN(C(=O)c3ccc(-c4cc(F)c(F)c(F)c4)cc3)C2)N1` [Example 68, 2-((3′,4′,5′-trifluorobiphenyl-4-yl)carbonyl)-2,5-diazaspiro[3.4]octan-6-one], the inhibition at 10 µM worked out at 93%.

Take `O=C1CCC2(CN(C(=O)c3ccc(-c4ccc(F)c(F)c4F)cc3)C2)N1` [Example 69, 2-((2′,3′,4′-trifluorobiphenyl-4-yl)carbonyl)-2,5-diazaspiro[3.4]octan-6-one]: the inhibition at 10 µM was 97%.

Turning to `O=C1CCC2(CN(C(=O)c3ccc(-c4cc(F)c(F)cc4F)cc3)C2)N1` [Example 70, 2-((2′,4′,5′-trifluorobiphenyl-4-yl)carbonyl)-2,5-diazaspiro[3.4]octan-6-one], the inhibition at 10 µM was found to be 97%.

As for `COc1c(F)cc(-c2ccc(C(=O)N3CC4(CCC(=O)N4)C3)cc2)cc1F` [Example 71, 2-((3′,5′-difluoro-4′-methoxybiphenyl-4-yl)carbonyl)-2,5-diazaspiro[3.4]octan-6-one], the inhibition at 10 µM stood at 94%.

As to `O=C1CCC2(CN(C(=O)c3ccc(-c4ccc5sncc5c4)cc3)C2)N1` [Example 72, 2-(4-(1,2-benzothiazol-5-yl)benzoyl)-2,5-diazaspiro[3.4]octan-6-one], the inhibition at 10 µM was 97%.

Turning to `O=C1CCC2(CN(C(=O)c3ccc(-c4ccc5cnsc5c4)cc3)C2)N1` [Example 73, 2-(4-(1,2-benzothiazol-6-yl)benzoyl)-2,5-diazaspiro[3.4]octan-6-one], the inhibition at 10 µM worked out at 98%.

With `O=C1CCC2(CN(C(=O)c3ccc(-c4ccc5c(c4)OCC5)cc3)C2)N1` [Example 74, 2-(4-(2,3-dihydro-1-benzofuran-6-yl)benzoyl)-2,5-diazaspiro[3.4]octan-6-one], the inhibition at 10 µM is 95%.

Consider `O=C1CCC2(CN(C(=O)c3ccc(-c4cccc5c4CCO5)cc3)C2)N1` [Example 75, 2-(4-(2,3-dihydro-1-benzofuran-4-yl)benzoyl)-2,5-diazaspiro[3.4]octan-6-one], for which the inhibition at 10 µM was determined as 90%.

As to `O=C1CCC2(CN(C(=O)c3ccc(-c4c(F)cccc4F)cc3)C2)N1` [Example 76, 2-((2′,6′-difluorobiphenyl-4-yl)carbonyl)-2,5-diazaspiro[3.4]octan-6-one], the inhibition at 10 µM was 85%.

As for `O=C1CCC2(CN(C(=O)c3ccc(-c4c(F)cc(F)cc4F)cc3)C2)N1` [Example 77, 2-((2′,4′,6′-trifluorobiphenyl-4-yl)carbonyl)-2,5-diazaspiro[3.4]octan-6-one], the inhibition at 10 µM worked out at 88%.

In the case of `COc1ccc(F)c(-c2ccc(C(=O)N3CC4(CCC(=O)N4)C3)cc2)c1F` [Example 78, 2-((2′,6′-difluoro-3′-methoxybiphenyl-4-yl)carbonyl)-2,5-diazaspiro[3.4]octan-6-one], the inhibition at 10 µM is 85%.

What is called inhibition is the relative decrease from the control value, in per cent.
